# US20070129344A1, “Bicyclic 6-alkylidene-penem beta-lactamase inhibitors and beta-lactam antibiotic combination: a broad spectrum antibiotic” (priority 2005, published 2007)
# Where a name gives a salt, the structure may show the parent alone. Read-outs that look alike come from different tables or passages of the source.
# What was measured:
# [1] = tested on: E. coli GC 2883 (OXA-10/PSE-2); assay: MIC microbroth dilution; β-lactamase class D; assay type: cell-based; details: Cefepime + 4 ug/ml Compound 1
# Protocol: (§1) The in vitro activities of the antibiotics were determined by the microbroth dilution method as recommended by the National Committee for Clinical Laboratory Standards (NCCLS). (NCCLS. 2000. Methods for Dilution Antimicrobial Susceptibility Tests for Bacteria That Grow Aerobically; Approved Standards: M7-A5, vol. 19. National Committee for Clinical Laboratory Standards, Villanova, Pa.). Mueller-Hinton II broth (MHBII)(BBL Cockeysville, Md.), was used for the testing procedure. […]. The plates were incubated for 18-22 hours at 35° C. in ambient air.
# [2] = tested on: K. pn GC 3104 (MIR-1 + TEM-1); assay: MIC microbroth dilution; β-lactamase class A, C; assay type: cell-based, K. pneumoniae
# Protocol: as §1
# [3] = tested on: K. pn GC 6655 (TEM-1 + ACT-1); assay: MIC microbroth dilution; β-lactamase class A, C; assay type: cell-based, K. pneumoniae
# Protocol: as §1
# [4] = tested on: A. baumannii PT 9444 PTZ-R; assay: MIC microbroth dilution; β-lactamase class not determined; assay type: cell-based; details: A. baumannii PT 9444; Cefepime + 4 ug/ml Compound 1
# Protocol: as §1
# [5] = tested on: C. freundii PT 1499 Stably derepressed AmpC; assay: MIC microbroth dilution; β-lactamase class C; assay type: cell-based; details: Cefepime + 4 ug/ml Compound 1
# Protocol: as §1
# [6] = tested on: C. freundii GC 4187 Stably derepressed AmpC; assay: MIC microbroth dilution; β-lactamase class C; assay type: cell-based; details: Cefepime + 4 ug/ml Compound 1
# Protocol: as §1
# [7] = tested on: P. aeruginosa GC 4161 Stably derepressed AmpC; assay: MIC microbroth dilution; β-lactamase class C; assay type: cell-based; details: P. aeruginosa GC 4161; Cefepime + 4 ug/ml Compound 1
# Protocol: as §1
# [8] = tested on: S. marcescens GC 4132 Stably derepressed AmpC; assay: MIC microbroth dilution; β-lactamase class C; assay type: cell-based; details: Cefepime + 4 ug/ml Compound 1
# Protocol: as §1
# [9] = tested on: E. coli GC 1499 (TEM-4 + TEM-1); assay: MIC microbroth dilution; β-lactamase class A, A (ESBL); assay type: cell-based
# Protocol: as §1
# [10] = tested on: E. coli GC 1695 (TEM-1 + TEM-10); assay: as above; assay type: cell-based
# Protocol: as §1
# [11] = tested on: E. coli GC 5901 (TEM-1 and SHV-8); assay: as above; assay type: cell-based
# Protocol: as §1
# [12] = tested on: E. coli GC 6260 (TEM-1 + SHV-5); assay: as above; assay type: cell-based
# Protocol: as §1
# [13] = tested on: E. coli GC 2146 (TEM-1; SHV-7); assay: as above; assay type: cell-based
# Protocol: as §1
# [14] = tested on: E. coli GC 2015 (TEM-10 + SHV-1); assay: as above; assay type: cell-based
# Protocol: as §1
# [15] = tested on: K. pneumoniae GC 7645 TEM-30 TEM-1 KPC-2 SHV-12; assay: MIC microbroth dilution; β-lactamase class A, A (Cb'ase), A (ESBL), A(IRT); assay type: cell-based; details: K. pneumoniae GC 7645; Cefepime + 4 ug/ml Compound 1
# Protocol: as §1
# [16] = tested on: C. freundii GC 4171 TEM-1 + InducibleAmpC; assay: MIC microbroth dilution; β-lactamase class A, C; assay type: cell-based
# Protocol: as §1
# [17] = tested on: K. pn GC 2391 (pl 5.4; 5.6; 7.6; 8.7 B-lactamases); assay: MIC microbroth dilution; β-lactamase class A, A (ESBL), C; assay type: cell-based, K. pneumoniae
# Protocol: as §1
# K. pn GC 1516 (TEM-26) = assay: MIC microbroth dilution; β-lactamase class A (ESBL); assay type: cell-based, K. pneumoniae
# Protocol: as §1
# K. pn GC 1510 (TEM-10) = assay: as above; assay type: cell-based, K. pneumoniae
# Protocol: as §1
# [18] = tested on: K. oxytoca GC 7627 TEM-1 K1 KPC-2; assay: MIC microbroth dilution; β-lactamase class A, A (Cb'ase); assay type: cell-based; details: K. oxytoca GC 7627; Cefepime + 4 ug/ml Compound 1
# Protocol: as §1
# [19] = tested on: A. baumannii GC 7685 TEM-1; assay: MIC microbroth dilution; β-lactamase class A; assay type: cell-based; details: A. baumannii GC 7685; Cefepime + 4 ug/ml Compound 1
# Protocol: as §1
# E. coli ATCC 35218 TEM-1 = assay: MIC microbroth dilution; β-lactamase class A; assay type: cell-based; details: E. coli ATCC 35218; Cefepime + 4 ug/ml Compound 1
# Protocol: as §1
# E. coli GC 2253 (IRT-2) = assay: MIC microbroth dilution; β-lactamase class A (IRT); assay type: cell-based; details: Cefepime + 4 ug/ml Compound 1
# Protocol: as §1
# E. coli GC 2009 (TEM-10) = assay: MIC microbroth dilution; β-lactamase class A (ESBL); assay type: cell-based; details: E. coli GC 2009; Cefepime + 4 ug/ml Compound 1
# Protocol: as §1
# [20] = tested on: A. baumannii GC 6662 IMI-R; assay: MIC microbroth dilution; class PBP (penicillin binding protein); assay type: cell-based
# Protocol: as §1
# [21] = tested on: A. baumannii GC 6660 IMI-R; assay: as above; assay type: cell-based
# Protocol: as §1
# [22] = tested on: A. baumannii GC 6661 IMI-R; assay: as above; assay type: cell-based
# Protocol: as §1
# [23] = tested on: K. pneumoniae GC 7636 TEM-1 KPC-2 SHV-12; assay: MIC microbroth dilution; β-lactamase class A, A (Cb'ase), A (ESBL); assay type: cell-based; details: K. pneumoniae GC 7636; Cefepime + 4 ug/ml Compound 1
# Protocol: as §1
# [24] = tested on: P. aeruginosa PT 9236 PTZ-R; assay: MIC microbroth dilution; assay type: cell-based
# Protocol: as §1
# [25] = tested on: P. aeruginosa PT 9587 PTZ-R; assay: MIC microbroth dilution; assay type: cell-based
# Protocol: as §1
# [26] = tested on: P. aeruginosa PT 8411 PTZ-R; assay: MIC microbroth dilution; assay type: cell-based
# Protocol: as §1
# [27] = tested on: P. aeruginosa PT 8503 PTZ-R; assay: MIC microbroth dilution; assay type: cell-based
# Protocol: as §1
# [28] = Klebsiella pneumoniae, Cefepime + 4 ug/ml Compound 2, read-out: MIC
# [29] = Escherichia coli, Cefepime + 4 ug/ml Compound 2, read-out: MIC
compound,measurement,setting,value
"O=C([O-])C1=CS[C@@H]2/C(=C\c3cn4c(n3)CCC4)C(=O)N12.[Na+] [Compound 1, (5R), (6Z)-6-(6,7-Dihydro-5H-pyrrolo[1,2-a]imidazol-2-ylmethylene)-7-oxo-4-thia-1-aza-bicyclo[3.2.0]hept-2-ene-2-carboxylic Acid, Sodium Salt]",MIC,[1],0.06 µg/mL
same,MIC,[2]; Cefepime + 4 ug/ml Compound 1,0.50 µg/mL
same,MIC,[3]; Cefepime + 4 ug/ml Compound 1,0.12 µg/mL
same,MIC,[4],16 µg/mL
same,MIC,[5],0.03 µg/mL
same,MIC,[6],0.12 µg/mL
same,MIC,[7],16 µg/mL
same,MIC,[8],0.12 µg/mL
same,MIC,[9]; Cefepime + 4 ug/ml Compound 1,0.50 µg/mL
same,MIC,[10]; Cefepime + 4 ug/ml Compound 1,0.03 µg/mL
same,MIC,[11]; Cefepime + 4 ug/ml Compound 1,4 µg/mL
same,MIC,[12]; Cefepime + 4 ug/ml Compound 1,0.03 µg/mL
same,MIC,[13]; Cefepime + 4 ug/ml Compound 1,0.12 µg/mL
same,MIC,[14]; Cefepime + 4 ug/ml Compound 1,0.25 µg/mL
same,MIC,[15],>16 µg/mL
same,MIC,"[16]; C. freundii GC 4171, Cefepime + 4 ug/ml Compound 1",0.06 µg/mL
same,MIC,[17]; Cefepime + 4 ug/ml Compound 1,0.50 µg/mL
same,MIC,K. pn GC 1516 (TEM-26); Cefepime + 4 ug/ml Compound 1,0.25 µg/mL
same,MIC,K. pn GC 1510 (TEM-10); Cefepime + 4 ug/ml Compound 1,0.06 µg/mL
same,MIC,[18],2 µg/mL
same,MIC,[19],16 µg/mL
same,MIC,E. coli ATCC 35218 TEM-1,0.03 µg/mL
same,MIC,E. coli GC 2253 (IRT-2),0.03 µg/mL
same,MIC,E. coli GC 2009 (TEM-10),0.12 µg/mL
same,MIC,[20]; Cefepime + 4 ug/ml Compound 1,>16 µg/mL
same,MIC,[21]; Cefepime + 4 ug/ml Compound 1,>16 µg/mL
same,MIC,[22]; Cefepime + 4 ug/ml Compound 1,16 µg/mL
same,MIC,[23],16 µg/mL
same,MIC,[24]; Cefepime + 4 ug/ml Compound 1,16 µg/mL
same,MIC,[25]; Cefepime + 4 ug/ml Compound 1,2 µg/mL
same,MIC,[26]; Cefepime + 4 ug/ml Compound 1,4 µg/mL
same,MIC,[27]; Cefepime + 4 ug/ml Compound 1,2 µg/mL
"O=C(O)C1=CS[C@@H]2/C(=C\c3cn4c(n3)COCC4)C(=O)N12 [Compound 2, (5R), (6Z)-6-(5,6-Dihydro-8H-imidazo[2.1-c][1,4]oxazin-2-ylmethylene)-7-oxo-4-thia-1-azabicyclo[3.2.0]hept-2-ene-2-carboxylic Acid, Sodium Salt]",MIC,[2]; [28],0.5 µg/mL
same,MIC,[3]; [28],0.12 µg/mL
same,MIC,[9]; [29],1 µg/mL
same,MIC,[10]; [29],0.03 µg/mL
same,MIC,[11]; [29],2 µg/mL
same,MIC,[12]; [29],0.03 µg/mL
same,MIC,[13]; [29],0.12 µg/mL
same,MIC,[14]; [29],0.12 µg/mL
same,MIC,[16]; Citrobacter freundii,0.06 µg/mL
same,MIC,[17]; [28],0.5 µg/mL
same,MIC,K. pn GC 1516 (TEM-26); [28],0.25 µg/mL
same,MIC,K. pn GC 1510 (TEM-10); [28],0.03 µg/mL
same,MIC,"[20]; Acinetobacter baumannii, GC6662IMIR, Cefepime + 4 ug/ml Compound 2, read-out: MIC",> 16 µg/mL
same,MIC,"[21]; Acinetobacter baumannii, GC6660IMIR, Cefepime + 4 ug/ml Compound 2, read-out: MIC",> 16 µg/mL
same,MIC,"[22]; Acinetobacter baumannii, GC6661IMIR, Cefepime + 4 ug/ml Compound 2, read-out: MIC",16 µg/mL
same,MIC,"[24]; Pseudomonas aeruginosa, PT9236PTZR, Cefepime + 4 ug/ml Compound 2, read-out: MIC",16 µg/mL
same,MIC,"[25]; Pseudomonas aeruginosa, PT9587PTZR, Cefepime + 4 ug/ml Compound 2, read-out: MIC",2 µg/mL
same,MIC,"[26]; Pseudomonas aeruginosa, PT8411PTZR, Cefepime + 4 ug/ml Compound 2, read-out: MIC",4 µg/mL
same,MIC,"[27]; Pseudomonas aeruginosa, PT8503PTZR, Cefepime + 4 ug/ml Compound 2, read-out: MIC",2 µg/mL
